# Laboratory results from patent US11389434B2, “Methods and pharmaceutical compositions for the treatment of mast cell diseases” (INSERM (INSTITUT NATIONAL DE LA SANTE ET DE LA RECHERCHE …, priority 2017, dated 2022).
# Assays:
# [1] = tested on: mast cells; assay: Mast cell death by flow cytometry, 7-AAD viability staining; assay type: cell-based, human
# Procedure: (§1) The human MCL-derived cell line HMC-1 was kindly provided by Dr. Michel Arock, Paris, France. Two sub-clones were used, namely HMC-1.1 expressing KIT V560G, and HMC-1.2 expressing KIT V560G and KIT D816V.
# (§2) Human primary mast cells, patient's leukemic mast cells and ROSA KIT-WT cell line were cultured in Iscove's modified Dulbecco's Medium (IMDM)-Glutamax® (Invitrogen) supplemented with the penicillin/streptomycin 100 U/ml (P/S) (Invitrogen), 1% of sodium pyruvate (Invitrogen), 1% of vitamins (Invitrogen), 1% of glutamine (Invitrogen), 2% of non-essential amino acids (Invitrogen), 1% of a commercial solution of insulin-transferrin-sodium selenite (Invitrogen), 0.3% of albumin bovine (BSA) in presence of human SCF at 100 ng/ml (Milteny biotech). “ROSA KIT D816V”, “ROSA KIT Delta 417-419 insY” mast cells and HMC-1 lines which have mutated KIT receptor (CD117) grow in the same media described above but in absence of hSCF.
# (§3) Kinetic cell proliferation assays were performed using the IncuCyte® Live Cell analysis system with 10 000 cells/well in triplicate and during one week in presence or absence of chemicals compounds, Gant61, Vismodegib and, individually or in combination, to determine their effect on mast cell proliferation. Compounds were added the first day at different doses and the media was not changed over the 7 days. At the end of the week, mast cells death was investigated by flow cytometry using 7-AAD viability staining solution.
# [2] = tested on: leukemic MC; assay: Leukemic mast cell death; assay type: cell-based, human; details: data not shown
# Procedure: as §1, §2
# as §3, with “At the end of the week, mast cells death was investigated by flow cytometry using 7-AAD viability staining solution.” left out
# [3] = tested on: ROSA KIT K417; assay: Kinetic cell proliferation assay, IncuCyte Live Cell analysis system; assay type: cell-based, human; details: ROSA KIT K417, increasing doses (10 to 50 μM), 144 hours
# [4] = tested on: ROSA KIT WT; assay: as above; assay type: cell-based, human; details: increasing doses (10 to 50 μM), 144 hours
# Procedure: as §1, §2, §3
# [5] = tested on: ROSA KIT D816V; assay: as above; assay type: cell-based, human; details: increasing doses (10 to 50 μM), 144 hours
# Procedure: as §1, §2, §3
# [6] = tested on: ROSA WT; assay: Western blot of proteins associated with cell proliferation or apoptosis; assay type: cell-based, human; details: increasing doses
# Procedure: as §1, §2
# (§4) After an overnight starvation of 5 million cells from each kind of cells described above, cells were treated with different doses of chemical agonists (such as purmorfamine) or antagonists (such as Gant61) of HH pathway and for several time-laps. Cells were then collected to extract RNA or proteins to perform gene expression analysis by RT-qPCR or western blot analysis. […]
# [7] = tested on: ROSA D816V; assay: as above; assay type: cell-based, human; details: increasing doses
# Procedure: as §1, §2, §4
# [8] = tested on: conventional PKC isoforms (α, β, and γ), Syk, FLK1, Akt, PKA, c-Kit, C-Fgr, c-Src, FLT3, PDFRβ, VEGFR1, and VEGFR2; details: several serine/threonine and tyrosine kinases; cited from earlier work
# [9] = tested on: GLI1 protein; assay: Western blot of GLI1 after stimulation with SMO agonist; assay type: cell-based; details: human MC lines (ROSA KIT WT, KIT D816V), purmorphamine 2 or 5 μM, 12 or 24 hours
# Procedure: After an overnight starvation of 5 million cells from each kind of cells described above, cells were treated with different doses of chemical agonists (such as purmorfamine) or antagonists (such as Gant61) of HH pathway and for several time-laps. Cells were then collected to extract RNA or proteins to perform gene expression analysis by RT-qPCR or western blot analysis. Hedgehog genes Gli1-2-3, Smo, Patch receptors, SHH-IHH-DHH ligands and the tumor supressor Bcl2 gene were investigated. Hedgehog proteins (Gli1 and Gli3), proteins involved in apoptosis (Bcl2, caspase3, Bcl-xl) and in PI3K/AKT/mTOR pathway were investigated.
compound,measurement,setting,value
CN(C)c1ccccc1CN1CCCN(Cc2ccccc2N(C)C)C1c1ccncc1 [GANT61],mast cells death,[1]; GANT61 5 μM,5%
same,mast cells death,"[1]; GANT61 50 μM, data not shown",more than 90%
same,leukemic MC death,[2],induced leukemic MC death
same,proliferation (percentage of confluence),[3],inhibited
same,proliferation (percentage of confluence),[4],inhibited
same,proliferation (percentage of confluence),[5],inhibited
same,"Expression levels of mTOR, p-AKT, AKT, MYC, Caspase3, BCL2, and BCLX-L proteins",[6],decreased
same,"Expression levels of mTOR, p-AKT, AKT, MYC, Caspase3, BCL2, and BCLX-L proteins",[7],decreased
"CO[C@@H]1[C@H](N(C)C(=O)c2ccccc2)C[C@H]2O[C@]1(C)n1c3ccccc3c3c4c(c5c6ccccc6n2c5c31)C(=O)NC4 [PKC 412, N-[(9S,10R,11R,13R)-2,3,10,11,12,13-hexahydro-10-methoxy-9-methyl-1-oxo-9,13-epoxy-1H,9H-diindolo[1,2,3-gh:3′,2′,1′-lm]pyrrolo[3,4-j][1,7]benzodiazonin-11-yl]-N-methyl-benzamide]",IC50,[8],80 to 500 nM
c1ccc2c(Oc3nc(Nc4ccc(N5CCOCC5)cc4)c4ncn(C5CCCCC5)c4n3)cccc2c1 [purmorphamine],GLI1 expression,[9],clearly increased
CS(=O)(=O)c1ccc(C(=O)Nc2ccc(Cl)c(-c3ccccn3)c2)c(Cl)c1 [vismodegib],induction of cell death compared with GANT61,"[1]; whatever the cell type, data not shown",much less important
same,proliferation (percentage of confluence),[3],prevented the proliferation
same,proliferation (percentage of confluence),[4],prevented the proliferation
same,proliferation (percentage of confluence),[5],prevented the proliferation
